Where two headings read alike, the source gives them in different places.
Columns and labels:
[1] = cited from earlier work
[2] = Ciliotoxicity of microemulsion formulation; conditions: microemulsion: 8% Labrafil M 1944CS, 30% Cremophor RH 40/ethanol (3:1) and water
[3] = Microemulsion formulation: NMDP solubility and droplet size; assay type: physicochemical; conditions: aqueous with cosolvent or surfactant or cyclodextrin, 8% Labrafil M 1944CS, 30% Cremophor RH 40/ethanol (3:1) and water
[4] = Pharmacokinetics after intranasal administration, blood samples, NMDP by HPLC; assay type: in vivo
[5] = tested on: mice suffering from noise induced tinnitus; assay: Sound-based avoidance detection (SBAD), Go trials; assay type: in vivo
Method: Using a shuttle box divided into two compartments, mice were trained to cross from side to side with sound cues in the “Go” trials and remain still in the absence of sound in the “No-Go” trials for 15 days. […] The sound cues were randomly played as white noise or narrow-band noise at 5, 10, 16, 20, and 32 kHz with sound intensities randomly at 75, 80, or 85 dB. […] Additionally, a hurdle was added on training 11 to reinforce the training. After the 15th training day, mice were tested for 3 days to obtain a baseline score to be compared after noise exposure, as well as retraining for 3 days. Following the successful completion of training so that mice reached a high percentage of success in the trials, the mice were exposed to a noise-induced trauma for tinnitus. To ensure that the mice still have their hearing, one ear was protected with an ear plug, while the other ear was exposed to the noise. The mice were placed in a sound booth where they were exposed to 120 dB broadband noise at 4-25 kHz for 2-4 hours. Following the noise exposure, the mice were housed for one month, and then tested to see if they have developed tinnitus. In these testing periods, the mice were tested for three days in the shuttle boxes, where they underwent the Go and No-Go trials, however in the No-Go trials the mice were not shocked, as it is expected that mice with tinnitus would cross compartments in the absence of a sound cue. The mice were continued to be shocked in the Go trials in order to ensure that they have retained their hearing and can hear the sound cues. […] To insure there is a significant difference in the No-Go trial scores, chi-square tests were completed comparing the post-noise exposure tests to the baseline tests. However, if tinnitus is not present in the mice, tests were done after waiting one more month, and another if needed. Mice received dosages of NMDP initially via intraperitoneal injection (i.p.). The Go and No-Go scores for the tests were compared using chi-square tests in Social Science Statistics. […]

[6] = cited from earlier work; for Bioavailability outside of the central nervous system: humans
[7] = tested on: mice suffering from noise induced tinnitus; assay: Sound-based avoidance detection (SBAD), No-Go trials; assay type: in vivo; conditions: for No-Go trial correct rate: tinnitus mice
Method: Using a shuttle box divided into two compartments, mice were trained to cross from side to side with sound cues in the “Go” trials and remain still in the absence of sound in the “No-Go” trials for 15 days. […] The sound cues were randomly played as white noise or narrow-band noise at 5, 10, 16, 20, and 32 kHz with sound intensities randomly at 75, 80, or 85 dB. […] Additionally, a hurdle was added on training 11 to reinforce the training. After the 15th training day, mice were tested for 3 days to obtain a baseline score to be compared after noise exposure, as well as retraining for 3 days. Following the successful completion of training so that mice reached a high percentage of success in the trials, the mice were exposed to a noise-induced trauma for tinnitus. To ensure that the mice still have their hearing, one ear was protected with an ear plug, while the other ear was exposed to the noise. The mice were placed in a sound booth where they were exposed to 120 dB broadband noise at 4-25 kHz for 2-4 hours. Following the noise exposure, the mice were housed for one month, and then tested to see if they have developed tinnitus. In these testing periods, the mice were tested for three days in the shuttle boxes, where they underwent the Go and No-Go trials, however in the No-Go trials the mice were not shocked, as it is expected that mice with tinnitus would cross compartments in the absence of a sound cue. The mice were continued to be shocked in the Go trials in order to ensure that they have retained their hearing and can hear the sound cues. […] To insure there is a significant difference in the No-Go trial scores, chi-square tests were completed comparing the post-noise exposure tests to the baseline tests. However, if tinnitus is not present in the mice, tests were done after waiting one more month, and another if needed. Mice received dosages of NMDP initially via intraperitoneal injection (i.p.). The Go and No-Go scores for the tests were compared using chi-square tests in Social Science Statistics. […] Following this conclusion, the mice were tested accordingly to determine if their No-Go scores could be improved by different drug doses and combinations.

[8] = after feeding to rats; cited from earlier work
[9] = anesthetized rats, cited from earlier work

**Q.** With COCCOC(=O)C1=C(C)NC(C)=C(C(=O)OC(C)C)C1c1cccc([N+](=O)[O-])c1 (centres unmarked) [NMDP, nimodipine] as the compound, how does the Water solubility [1] read?
**A.** Its Water solubility is 12 µg/mL.

**Q.** And the “water solubility (in words)” value [1]?
**A.** Its value is “poor water solubility”.

**Q.** What about the solubility in ethanol ([1]; ethanol) of the same compound?
**A.** Its solubility in ethanol is “freely soluble”.

**Q.** And the ciliotoxicity [2]?
**A.** Its ciliotoxicity is “no ciliotoxicity”.

**Q.** And the solubility [3]?
**A.** Its solubility is at most 6400 µg/mL.

**Q.** And the “pharmacokinetics, intranasal versus intravenous” value ([4]; Example 1: carrier, citrate buffer, benzalkonium chloride, water, about 50 mg/mL, 50 μL per nasal cavity)?
**A.** The value was “comparable to that of intravenously administered NMDP”.

**Q.** What about the “pharmacokinetics, intranasal versus intravenous” value ([4]; Example 2: carriers, non-aqueous solvent, surfactant, about 50 mg/mL, 50 μL per nasal cavity) of the same compound?
**A.** The value was “comparable to that of intravenously administered NMDP”.

**Q.** What about the “pharmacokinetics, intranasal versus intravenous” value ([4]; Example 3: mPEG350, PEG400, water, no non-ionic surfactant, about 100 mg/ml, 50 μL per nasal cavity) of the same compound?
**A.** The value was “comparable to that of intravenously administered NMDP”.

**Q.** What about the “pharmacokinetics, intranasal versus intravenous” value ([4]; Example 4: mPEG350, PEG400, water, ethanol, no non-ionic surfactant, about 100 mg/mL, 50 μL per nasal cavity) of the same compound?
**A.** The value was “comparable to that of intravenously administered NMDP”.

**Q.** And the “pharmacokinetics, intranasal versus intravenous” value ([4]; Example 7: six volunteer subjects with tinnitus, nasal spray of Example 5, 50 μL per nare, about 20 mg)?
**A.** The value was “comparable to that of intravenously administered NMDP”.

**Q.** And the “pharmacokinetics, intranasal versus intravenous” value ([4]; Example 8: vesicular composition (phospholipid, C2-C4 alcohols, water), about 200 mg/mL, 50 μL per nasal cavity)?
**A.** The value was “comparable to that of intravenously administered NMDP”.

**Q.** What about the bioavailability ([4]; human, plasma, inhaled or intranasal, microemulsion, single intranasal administration, 2 mg/kg, read-out: absolute bioavailability) of the same compound?
**A.** Its bioavailability is about 32%.

**Q.** And the “time of plasma concentration peak” value ([4]; microemulsion, single intranasal administration, 2 mg/kg)?
**A.** Its value is 1 h.

**Q.** What about the “Go trial correct rate” value ([5]; 10 mg/kg i.p.) of the same compound?
**A.** The value was about 100 % correct.

**Q.** And the “Go trial correct rate” value ([5]; 30 mg/kg i.p.)?
**A.** The value was about 100 % correct.

**Q.** What about the “Go scores: effect on ability to hear the sounds presented” value ([5]; i.p.) of the same compound?
**A.** The value was “did not have an effect”.

**Q.** And the “share of NMDP reaching the brain” value ([6]; due to high affinity binding of plasma proteins)?
**A.** The value was 5%.

**Q.** And the “Bioavailability outside of the central nervous system” value ([6]; intravenous administration)?
**A.** The value was 100%.

**Q.** What about the “Bioavailability outside of the central nervous system” value ([6]; oral administration, extensive first-pass metabolism) of the same compound?
**A.** The value was 3-30%.

**Q.** What about the “No-Go scores: behavioral changes” value ([7]; mice, 10, 30, and 50 mg/kg i.p.) of the same compound?
**A.** Its value is “did not cause any behavioral changes”.

**Q.** And the “No-Go trial correct rate” value ([7]; 30 mg/kg i.p.)?
**A.** The value was about 100 % correct.

**Q.** What about the “No-Go trial correct rate” value ([7]; 50 mg/kg i.p.) of the same compound?
**A.** Its value is about 100 % correct.

**Q.** What about the “No-Go trial correct rate” value ([7]; intranasal formulation of Example 15 F1, 0.9 mg/mouse (or 30 mg/kg)) of the same compound?
**A.** The value was about 100 % correct.

**Q.** For Phaseolus vulgaris hemagglutinin, which oral bioavailability [8] is on record?
**A.** Its oral bioavailability is “more than 10%”.

**Q.** Which nasal bioavailability ([9]; with N-acetyl-L-cysteine) does the source give for “human growth hormone: human growth hormone, nasal bioavailability modestly increased by N-acetyl-L-cysteine” here?
**A.** The nasal bioavailability was 12.2%.

**Q.** And the nasal bioavailability ([9]; without N-acetyl-L-cysteine)?
**A.** Its nasal bioavailability is 7.5%.

— patent US20260216156A1, “METHODS AND COMPOSITIONS FOR THE TREATMENT OF HEARING DISORDERS” (Gateway Biotechnology, Inc., priority 2023, published 2026)
